Test: Brain penetration (Kp,uu) in CD-1 mice after single IV bolus, with plasma and brain binding by equilibrium dialysis
Assay type: in vivo
Settings: mouse, brain and plasma (unbound brain/unbound plasma), male CD-1 mice, single IV bolus 1 mg/kg
Procedure: The compounds disclosed herein were tested on CD-1 mice for brain penetration (Kp, uu) according to the following procedures.
Nine male CD-1 mice were administered TEST COMPOUND by single intravenous bolus administration at 1 mg/kg. The vehicle used for IV study was 5% DMSO, 5% solutol, 20% PEG300 and 70% water. The detailed dosing and sampling regimens are described in the following tables.
The body weights were in the range from 28.81 to 31.25 g for males on the first dosing day. All animals received a single intravenous bolus administration of TEST COMPOUND from the tail vein.
Each blood collection (about 0.06 mL per time point) was performed from saphenous vein of each animal into pre-chilled commercial K2-EDTA tubes as anti-coagulant and placed on wet ice until centrifugation.
Brain tissue was homogenized using homogenizing buffer (15 mM PBS (pH7.4): MeOH=2:1) at the ratio of 1:9 (1 g tissue with 9 mL buffer, the dilution ratio is 10). The tissue homogenate was kept at −60° C. or lower until LC-MS/MS analysis.
The concentrations of TEST COMPOUND in plasma and brain were determined by using an LC-MS/MS method.
The plasma and brain concentration of TEST COMPOUND in study animals was subjected to a non-compartmental pharmacokinetic analysis by using the Phoenix WinNonlin software program (version 6.3 or above, Pharsight). The linear/log trapezoidal rule was applied in obtaining the PK parameters.
Mouse Kp, uu=(% free in mouse brain*concentration in mouse brain)/(% free in mouse plasma*concentration in mouse plasma)
(§1) The dialysis apparatus was assembled according to the manufacturer's instruction. Each Cell was filled with 120 μL of spiked plasma sample and dialyzed against equal volume of dialysis buffer (PBS). The assay was performed in duplicate. The dialysis plates were sealed and incubated in an incubator at 37° C. with 5% CO2 and rotated at 100 rpm for 6 hours. At the end of incubation, the seals were removed and 50 μL of samples from both buffer and plasma chambers were transferred to a 96-well plate.
as §1, with “with 150” for “with 120”, “of brain homogenate” for “of spiked plasma”, “and brain homogenate” for “and plasma”, “transferred into separate tubes on” for “transferred to”, “a” for “a 96-well”

| SMILES | Kp uu |
| --- | --- |
| Fc1cccc(F)c1C1=Nc2c(Cl)n[nH]c2-c2cc(N3CCOCC3)ccc2N1 (single isomer, unassigned) [Example 35, 4-(3-chloro-5-(2,6-difluorophenyl)-1,6-dihydrobenzo[d]pyrazolo[3,4-f][1,3]diazepin-9-y1)morpholine] | < 0.1 |
| Cc1n[nH]c2c1N=C(c1c(F)cccc1F)Nc1ccc(N3CCO[C@H](C(C)(C)O)C3)cc1-2 (single isomer, unassigned) [Example 36] | < 0.1 |
| Cc1n[nH]c2c1N=C(c1c(F)cccc1F)Nc1c-2cc(N2CCO[C@@H](C(C)(C)O)C2)nc1C (single isomer, unassigned) [Example 39] | < 0.1 |
| Cc1n[nH]c2c1N=C(c1c(F)cccc1F)Nc1cnc(N3CCS(=O)(=O)CC3)cc1-2 [Example 2, 4-[8-(2,6-difluorophenyl)-5-methyl-3,4,7,9,12-pentazatricyclo[8.4.0.02,6]tetradeca-1(10),2(6),4,7,11,13-hexaen-13-y1]-1,4-thiazinane 1,1-dioxide] | < 0.1 |
| Cc1n[nH]c2c1N=C(c1c(F)cccc1F)Nc1cnc(N3C[C@@H]4C[C@H]3CO4)cc1-2 [Example 6, (1S,4S)-5-[8-(2,6-difluorophenyl)-5-methyl-3,4,7,9,12-pentazatricyclo[8.4.0.02,6]tetradeca-1(10),2(6),4,7,11,13-hexaen-13-y1]-2-oxa-5-azabicyclo[2.2.1]heptane] | < 0.1 |
| [2H]C1([2H])OC([2H])([2H])C([2H])([2H])N(c2cc3c(cn2)NC(c2c(F)cccc2F)=Nc2c(C)n[nH]c2-3)C1([2H])[2H] [Example 14, 2,2,3,3,5,5,6,6-octadeuterio-4-[8-(2,6-difluorophenyl)-5-methyl-3,4,7,9,12-pentazatricyclo[8.4.0.02,6]tetradeca-1(10),2(6),4,7,11,13-hexaen-13-yl]morpholine] | < 0.1 |
| Cc1n[nH]c2c1N=C(c1c(F)cccc1F)Nc1cnc(N3CCC[C@@H](C#N)C3)cc1-2 [Example 18, (3R)-1-[8-(2,6-difluorophenyl)-5-methyl-3,4,7,9,12-pentazatricyclo[8.4.0.02,6]tetradeca-1(10),2(6),4,7,11,13-hexaen-13-yl]piperidine-3-carbonitrile] | < 0.1 |
| [2H]C1([2H])OC([2H])([2H])C([2H])([2H])N(c2cc3c(cn2)NC(c2c(F)cccc2F)=Nc2cn[nH]c2-3)C1([2H])[2H] [Example 20, 2,2,3,3,5,5,6,6-octadeuterio-4-[8-(2,6-difluorophenyl)-3,4,7,9,12-pentazatricyclo[8.4.0.02,6]tetradeca-1(10),2(6),4,7,11,13-hexaen-13-yl]morpholine] | < 0.1 |
| Fc1cccc(F)c1C1=Nc2c(Cl)n[nH]c2-c2cc(N3CCOCC3)ncc2N1 [Example 23, 4-(3-chloro-5-(2,6-difluorophenyl)-1,6-dihydropyrazolo[4,3-d]pyrido[4,3-f][1,3]diazepin-9-yl)morpholine] | < 0.1 |
| C[C@H]1CN(c2cc3c(cn2)NC(c2c(F)cccc2F)=Nc2c(Cl)n[nH]c2-3)C[C@H](C)O1 [Example 26, (2S,6S)-4-(3-chloro-5-(2,6-difluorophenyl)-1,6-dihydropyrazolo[4,3-d]pyrido[4,3-f][1,3]diazepin-9-yl)-2,6-dimethylmorpholine] | < 0.1 |
| [2H]C([2H])([2H])c1n[nH]c2c1N=C(c1c(F)cccc1F)Nc1cnc(N3CCO[C@H](C)C3)cc1-2 [Example 27, (2R)-4-[8-(2,6-difluorophenyl)-5-(trideuteriomethyl)-3,4,7,9,12-pentazatricyclo[8.4.0.02,6]tetradeca-1(10),2(6),4,7,11,13-hexaen-13-y1]-2-methyl-morpholine] | < 0.1 |
| Cc1n[nH]c2c1N=C(c1c(F)cccc1F)Nc1cnc(-c3cnn(CC(F)F)c3)cc1-2 [Example 28, 13-[1-(2,2-difluoroethyl)pyrazol-4-y1]-8-(2,6-difluorophenyl)-5-methyl-3,4,7,9,12-pentazatricyclo[8.4.0.02,6]tetradeca-1(10),2(6),4,7,11,13-hexaene] | ≥ 0.1 |
| Fc1cccc(F)c1C1=Nc2cn[nH]c2-c2cc(N3CCOCC3)ncc2N1 [Example 33, 4-[8-(2,6-difluorophenyl)-3,4,7,9,12-pentazatricyclo[8.4.0.02,6]tetradeca-1(10),2(6),4,7,11,13-hexaen-13-yl]morpholine] | < 0.1 |
| Cc1n[nH]c2c1N=C(c1c(F)cccc1F)Nc1c-2cc(N2CCO[C@@H](CO)C2)nc1C [Example 37, (R)-(4-(5-(2,6-difluorophenyl)-3,7-dimethyl-1,6-dihydropyrazolo[4,3-d]pyrido[4,3-f][1,3]diazepin-9-yl)morpholin-2-y1)methanol] | < 0.1 |
| Cc1n[nH]c2c1N=C(c1c(F)cccc1F)Nc1c-2cc(N2CCC(C)(O)CC2)nc1C [Example 41, 1-(5-(2,6-difluorophenyl)-3,7-dimethyl-1,6-dihydropyrazolo[4,3-d]pyrido[4,3-f][1,3]diazepin-9-yl)-4-methylpiperidin-4-ol] | < 0.1 |
| Cn1cc(-c2cc3c(cn2)NC(c2c(F)cccc2F)=Nc2c(Cl)n[nH]c2-3)cn1 [Example 54, 3-chloro-5-(2,6-difluorophenyl)-9-(1-methyl-1H-pyrazol-4-yl)-1,6-dihydropyrazolo[4,3-d]pyrido[4,3-f][1,3]diazepine] | < 0.1 |

Source: patent publication US20240228493A1, “LRRK2 INHIBITORS AND USES THEREOF” (NEURON23, ICN., priority 2022, published 2024)
